Measured values taken from paper PMC10702058, “Phase I dose escalation study and pilot efficacy analysis of LXI-15029, a novel mTOR dual inhibitor, in Chinese subjects with advanced malignant solid tumors” (BMC Cancer, 2023).
“Also recorded” adds a separate entry of the source.

Assay: Plasma pharmacokinetics of LXI-15029 (LC-MS/MS, non-compartmental analysis)
Assay type: in vivo, human
Settings: for Cmax at 28 day / AUC / AUC(0-inf) / Cmax: human, plasma, geometric mean (coefficient of variation); for Cmax at 28 day / AUC / RacAUC (accumulation ratio) / RacCmax (accumulation ratio) / t1/2ss: multiple dose, cycle 1 day 28; for AUC(0-inf) / Cmax / CL/F / V/F: single dose, cycle 1 day 1; for RacAUC (accumulation ratio) / RacCmax (accumulation ratio) / t1/2ss / CL/F / V/F: arithmetic mean ± standard deviation
Description: Blood samples for PK analysis of LXI-15029 were collected on day 1 (pre-dose, 20 min, 40 min, 1 h, 1.5 h, 2 h, 3 h, 4 h, 6 h, 8 h, 12 h, 24 h, and 48 h), cycle 1 day 8 (pre-dose), cycle 1 day 15 (pre-dose), and cycle 1 day 28 (pre-dose, 20 min, 40 min, 1 h, 1.5 h, 2 h, 3 h, 4 h, 6 h, 8 h, and 12 h). The blood samples were stored at -70°C until testing. The concentration of LXI-15029 in plasma was measured using the validated liquid chromatography-tandem mass spectrometry (LC–MS/MS) method. The concentration–time information of LXI-15029 was summarized based on pre-dose and post-dose data of each patient, to explore the linearity of exposure with single dose and steady-state situations, the time to reach steady state and the predictability of single to multiple doses PK. PK parameters were calculated separately for single and repeated doses using descriptive statistics. PK analysis was performed by Covance Central Laboratory using the validated software Phoenix WinNonlin Version 8.1 (Pharsight, Mountain View, CA). A standard non-compartmental method was used to calculate the peak plasma concentration (Cmax), time to reach the Cmax (tmax), the total area under the concentration–time curve (AUC0-∞), and the elimination half-life (t1/2).

## CNC(=O)c1cccc(-c2ccc3c(N4C5CCC4COC5)nc(N4CCOC[C@@H]4C)nc3n2)c1 [LXI-15029]
oral, 80 mg BID (n = 4)
  Cmax at 28 day: 2260 ng/mL
  AUC(0-inf): 1870 ng·h/mL
  Cmax: 1340 ng/mL
oral, 110 mg BID (n = 3)
  AUC: 12900 ng·h/mL
  Cmax at 28 day: 3930 ng/mL
  AUC(0-inf): 5340 ng·h/mL
  Cmax: 2930 ng/mL
oral, 150 mg BID (n = 4)
  AUC: 25500 ng·h/mL
  Cmax at 28 day: 5840 ng/mL
  AUC(0-inf): 12100 ng·h/mL
  Cmax: 4140 ng/mL
oral, 10 mg BID (n = 3)
  AUC(0-inf): 111 ng·h/mL
  Cmax: 66.5 ng/mL
oral, 20 mg BID (n = 3)
  AUC(0-inf): 898 ng·h/mL
  Cmax: 474 ng/mL
oral, 40 mg BID (n = 3)
  AUC(0-inf): 1680 ng·h/mL
  Cmax: 1010 ng/mL
oral, 60 mg BID (n = 4)
  AUC(0-inf): 3750 ng·h/mL
  Cmax: 1340 ng/mL
10 mg BID (n = 3)
  RacAUC (accumulation ratio): 2.08 ± 1.289
  RacCmax (accumulation ratio): 1.96 ± 1.061
  t1/2ss: 1.13 ± 0.080 h
  CL/F: 99.45 ± 51.035 L/h
  V/F: 126.07 ± 40.383 L
20 mg BID (n = 3)
  RacAUC (accumulation ratio): 0.99 ± 0.260
  RacCmax (accumulation ratio): 0.75 ± 0.140
  t1/2ss: 1.24 ± 0.167 h
  CL/F: 24.11 ± 11.940 L/h
  V/F: 49.56 ± 19.453 L
40 mg BID (n = 3)
  RacAUC (accumulation ratio): 1.00 ± 0.036
  RacCmax (accumulation ratio): 1.02 ± 0.180
  t1/2ss: 1.14 ± 0.250 h
  CL/F: 24.58 ± 7.772 L/h
  V/F: 42.35 ± 25.602 L
60 mg BID (n = 4)
  RacAUC (accumulation ratio): 1.47 ± 0.546
  RacCmax (accumulation ratio): 1.37 ± 0.382
  t1/2ss: 1.90 ± 0.197 h
  CL/F: 16.47 ± 4.677 L/h
  V/F: 45.88 ± 14.063 L
80 mg BID (n = 4)
  RacAUC (accumulation ratio): 1.78 ± 0.268
  RacCmax (accumulation ratio): 1.28 ± 0.102
  t1/2ss: 1.33 ± 0.068 h
  CL/F: 48.30 ± 25.396 L/h
  V/F: 92.88 ± 47.995 L
110 mg BID (n = 3)
  RacAUC (accumulation ratio): 2.51 ± 0.778
  RacCmax (accumulation ratio): 1.37 ± 0.352
  t1/2ss: 2.33 ± 0.857 h
  CL/F: 24.35 ± 17.791 L/h
  V/F: 43.99 ± 17.319 L
150 mg BID (n = 4)
  RacAUC (accumulation ratio): 2.39 ± 0.768
  RacCmax (accumulation ratio): 1.36 ± 0.507
  t1/2ss: 3.26 ± 1.247 h
  CL/F: 12.57 ± 2.022 L/h
  V/F: 34.75 ± 12.576 L
oral
  absorption after oral administration: absorbed rapidly; also recorded: fast absorbed
